# No end group written: not given here.
# B1: BNDF: survival promoting brain derived neurotrophic factor used as a positive control (protein, UniProt P23560 19-247, looked up)
# Neurotrophic factor BDNF …: APMKEANIRGQGGLAYPGVRTHGTLESVNGPKAGSRGLTSLADTFEHVIEELLDEDQKVRPNEENNKDADLYTSRVMLSSQVPLEPPLLFLLEEYKNYLDAANMSMRVRRHSDPARRGELSVCDSISEWVTAADKKTAVDMSGGTVTVLEKVPVSKGQLKQYFYETKCNPMGYTKEGCRGIDKRHWNSQCRTTQSYVRALTMDSKKRIGWRFIRIDTSCVCTLTIKRGR
# Key:
# [1] = system: rat primary dopaminergic neurons; experiment: Cellular model of Parkinson's disease, survival of rat primary dopaminergic neurons after 6-hydroxydopamine injury; format: cell-based
# Text: 6-hydroxydopamine (6-OHDA) is a selective catecholaminergic neurotoxin that is not only used as a pharmacological agent able to trigger PD-like stigmata (Sauer H. and Oertel W H Neuroscience 1994; 59: 401 and Cass W A et al. Brain Res. 2002; 938: 29) but also likely corresponds to a natural dopaminergic catabolite that accumulates in PD-affected brains and that appears to strongly contribute to this pathology (Jellinger K. et al. J. Neural. Transm. 1995; 46: 297). For this reason, 6-OHDA-induced dopaminergic neurotoxicity in mice is widely used as a model for PD research. Because 6-OHDA also induces neurodegeneration of dopaminergic neurons in vitro, it provides a useful model of PD. In this in vitro test mesencephalic dopaminergic neurons are exposed to 6-OHDA injury. […] After 24 h of intoxication, viable dopaminergic neurons are visualized and quantified by staining with a monoclonal Anti-Tyrosine Hydroxylase (TH) antibody. Tyrosine Hydroxylase is the first and rate-limiting enzyme involved in the biosynthesis of catecholamines like dopamine and norepinephrin from Tyrosine and has a key role in the physiology of adrenergic neurons. Tyrosine hydroxylase is commonly used as a marker for dopaminergic neurons, which is particularly relevant for research in Parkinson's disease.
# Rat dopaminergic neurons were cultured as described by Schinelli et al. J. Neurochem. 1988; 50: 1900 and Visanji N P et al. FASEB J. 2008; 22: 2488. Briefly, the midbrains obtained from 15-day old rat embryos (Janvier, France) were dissected under a microscope. The embryonic midbrains were removed and placed in ice-cold medium of Leibovitz (L15) containing 2% of Penicillin-Streptomycin (PS) and 1% of bovine serum albumin (BSA). The ventral portion of the mesencephalic flexure, a region of the developing brain rich in dopaminergic neurons, was used for the cell preparations.
# The midbrains were dissociated by trypsinisation for 20 min at 37° C. (Trypsin EDTA 1X). […] Viable cells were counted in a Neubauer cytometer using the trypan blue exclusion test. […]
# [2] = system: rat primary GABAergic medium spiny neurons; experiment: Cellular model of Huntington's disease, survival of rat primary GABAergic medium spiny neurons after glutamate injury; format: cell-based
# Text: GABAergic medium spiny neurons (MSNs) in the striatum represent the mostly affected cell population in HD brain. Being the main neuronal cell type of the striatum (85% in humans), GABAergic MSNs play a central role in the clinical manifestation of HD. GABA is viewed as the neurotransmitter that inhibits spontaneous involuntary movements, therefore loss of GABAergic MSNs is responsible for chorea development and other involuntary movements. The exquisite vulnerability of MSNs of striatum to degeneration in HD is caused by glutamate excitotoxicity that leads to neuronal dysfunction and death. Excessive activation of NMDA glutamate receptors is observed in post-mortem HD brain tissue (Kumar P. et al. Pharmacol. Rep. 2010; 62: 1). […] After 24 h of intoxication, viable GABAergic neurons are visualized and quantified by staining with a monoclonal anti-Glutamic Acid Decarboxylase antibody (specific for isoform GAD67). […]
# For each condition, 30 pictures per well were acquired (representing 80% of the total surface of the well) using ImageXpress (Molecular device) equipped with a LED at 20× magnification. […] The number of GAD67-positive neurons was automatically analyzed using MetaXpress software (Molecular device). […] All values were expressed as mean+/−SEM (s.e. mean) (n=6 wells per condition per culture).
# [3] = Crossing of the blood-brain barrier, inferred from activity by intra-peritoneal route; format: in vivo; conditions: concluded from biological activity after intra-peritoneal administration
# Text: To cross the BBB, persons skilled in the art know that the molecular and physicochemical properties of the molecule must fulfill the 5 criteria described by Lipinski et al. (1997). Adv Drug Del Rev 23: 3-25 (amongst them a low molecular weight, its hydrophobicity, its charge etc. . . . ).
molecule,measurement,setting,value
"NCCc1cc(O)c(O)cc1O [6-OHDA, 6-hydroxydopamine, reference compound]",reduction of survival of TH-positive dopaminergic neurons compared to control culture conditions,"[1]; 6-OHDA 20 μM, 24 h, no protective pre-treatment",31%
"N[C@@H](CCC(=O)O)C(=O)O [glutamate, reference compound]",reduction of survival of GAD67-positive MSN compared to control culture conditions,"[2]; glutamate 10 μM, 20 min, read after 24 h, no protective pre-treatment",38%
"EAKSQGGSD [PAT peptide, Glu-Ala-Lys-Ser-Gln-Gly-Gly-Ser-Asp (EAKSQGGSD)]",survival of TH-positive dopaminergic neurons (% of control condition),"[1]; PAT 10 nM, 1 h pre-incubation, then 6-OHDA 20 μM for 24 h",100%
same,passage across the blood-brain barrier,[3],crosses the BBB
B1,protection of TH-positive neurons from 6-OHDA-induced cell death,"[1]; BDNF 50 ng/mL (2 nM), 1 h pre-incubation, 6-OHDA 20 μM 24 h",fully protected
same,"survival of GAD67-positive neurons (cell survival, % of control)","[2]; BDNF 50 ng/mL (2 nM), 1 h pre-incubation, glutamate 10 μM 20 min, then 24 h",81%

# Source: patent US9468662B2, “Use of the PAT nonapeptide in the treatment and prevention of neurodegenerative diseases” (ORPHIT, priority 2010, dated 2016)
